Test results: patent US11566002B2, “Substituted tetrahydrocyclopenta[C]pyrroles, substituted dihydropyrrolizines, analogues thereof, and methods using same” (priority 2018, dated 2023)

Tested on: HBV rcDNA
Experiment: HepDE19 assay with bDNA quantitation of HBV rcDNA
Type: cell-based, hepatitis B virus
Conditions: HepDE19 cells, Tet-free medium, 7 day-incubation, rcDNA measured by Quantigene 2.0 bDNA assay, top concentration 25 μM; read-out: DE-19 bDNA EC50
Experimental: HepDE19 Assay with bDNA Quantitation of HBV rcDNA:
HepDE19 cell culture system is a HepG2 (human hepatocarcinoma) derived cell line that supports HBV DNA replication and cccDNA formation in a tetracycline (Tet)-regulated manner and produces HBV rcDNA and a detectable reporter molecule dependent on the production and maintenance of cccDNA (Guo, et al., 2007, J. Virol. 81:12472-12484).
HepDE19 (50,000 cells/well) were plated in 96-well collagen-coated tissue-culture treated microtiter plates in DMEM/F12 medium supplemented with 10% fetal bovine serum, 1% penicillin-streptomycin and 1 μg/mL tetracycline and incubated in a humidified incubator at 37° C. and 5% CO2 overnight. Next day, the cells were switched to fresh medium without tetracycline and incubated for 4 hours at 37° C. and 5% CO2. The cells were treated with fresh Tet-free medium with compounds at concentrations starting at 25 μM and a serial, ½ log, 8-point, titration series in duplicate. The final DMSO concentration in the assay was 0.5%. The plates were incubated for 7 days in a humidified incubator at 37° C. and 5% CO2. Following a 7 day-incubation, the level of rcDNA present in the inhibitor-treated wells was measured using a Quantigene 2.0 bDNA assay kit (Affymetrix, Santa Clara, Calif.) with HBV specific custom probe set and manufacturers instructions. Concurrently, the effect of compounds on cell viability was assessed using replicate plates, plated at a density of 5,000 cells/well and incubated for 4 days, to determine the ATP content as a measure of cell viability using the cell-titer glo reagent (CTG; Promega Corporation, Madison, Wis.) as per manufacturer's instructions. The plates were read using a Victor luminescence plate reader (PerkinElmer Model 1420 Multilabel counter) and the relative luminescence units (RLU) data generated from each well was calculated as % inhibition of the untreated control wells and analyzed using XL-Fit module in Microsoft Excel to determine EC50 and EC90 (bDNA) and CC50 (CTG) values using a 4-parameter curve fitting algorithm.
Representative compounds of the invention were tested for their abilities to inhibit formation of relaxed circular DNA (rcDNA) in a HepDE19 assay, as described elsewhere herein.

Row | Compound | EC50
1 | Cn1cnc(COC(=O)NC2CCc3c2cn(C)c3C(=O)Nc2ccc(F)c(Cl)c2)n1 (single isomer, unassigned) [Compound 25, (1-Methyl-1H-1,2,4-triazol-3-yl)methyl (1-((3-chloro-4-fluorophenyl)carbamoyl)-2-methyl-2,4,5,6-tetrahydrocyclopenta[c]pyrrol-4-yl)carbamate] | 3.5 µM
2 | CNC(=O)NC1CCc2c1c[nH]c2C(=O)Nc1ccc(F)c(Cl)c1 (single isomer, unassigned) [Compound 11, N-(3-Chloro-4-fluorophenyl)-4-(3-methylureido)-2,4,5,6-tetrahydrocyclopenta[c]pyrrole-1-carboxamide] | 2.4 µM
3 | Cn1cc2c(c1C(=O)Nc1ccc(F)c(Cl)c1)CCC2NC(=O)OC[C@@H]1CCC(=O)N1 (single isomer, unassigned) [Compound 118] | 0.16 µM
4 | Cn1cnc(COC(=O)NC2CCc3c2c(C(F)(F)F)n(C)c3C(=O)Nc2ccc(F)c(Cl)c2)n1 (centres unmarked) [Compound 123] | 8 µM
5 | Cn1cc2c(c1C(=O)Nc1ccc(F)c(Cl)c1)CCC2NC(=O)C1CC1 (single isomer, unassigned) [Compound 23, N-(3-Chloro-4-fluorophenyl)-4-(cyclopropanecarboxamido)-2-methyl-2,4,5,6-tetrahydrocyclopenta [c]pyrrole-1-carboxamide] | 0.12 µM
6 | Cn1cnc(COC(=O)NC2CCc3c2c(C(F)(F)F)n(C)c3C(=O)Nc2ccc(F)c(Cl)c2)n1 (centres unmarked) [Compound 122] | 0.45 µM
7 | Cn1cnc(COC(=O)NC2CCCCc3c2cn(C)c3C(=O)Nc2ccc(F)c(Cl)c2)n1 (single isomer, unassigned) [Compound 86, (1-Methyl-1H-1,2,4-triazol-3-yl)methyl (1-((3-chloro-4-fluorophenyl)carbamoyl)-2-methyl-2,4,5,6,7,8-hexahydrocyclohepta[c]pyrrol-4-yl)carbamate] | 0.16 µM
8 | Cn1cc2c(c1C(=O)Nc1ccc(F)c(Cl)c1)CCC2NC(=O)C1CC1 (single isomer, unassigned) [Compound 24, N-(3-Chloro-4-fluorophenyl)-4-(cyclopropanecarboxamido)-2-methyl-2,4,5,6-tetrahydrocyclopenta [c]pyrrole-1-carboxamide] | 1.6 µM
9 | Cn1cc2c(c1C(=O)Nc1ccc(F)c(Cl)c1)CCC2NC(=O)OCc1ccccn1 (centres unmarked) [Compound 6] | 0.14 µM
10 | Cn1cnc(COC(=O)NC2CCc3c2c(C2CC2)n(C)c3C(=O)Nc2ccc(F)c(Cl)c2)n1 (single isomer, unassigned) [Compound 91, (1-Methyl-1H-1,2,4-triazol-3-yl)methyl (1-((3-chloro-4-fluorophenyl)carbamoyl)-3-cyclopropyl-2-methyl-2,4,5,6-tetrahydrocyclopenta[c]pyrrol-4-yl)carbamate] | 22 µM
11 | Cn1cnc(COC(=O)NC2CCc3c2c(Cl)n(C)c3C(=O)Nc2ccc(F)c(Cl)c2)n1 (single isomer, unassigned) [Compound 51, (1-Methyl-1H-1,2,4-triazol-3-yl)methyl (3-chloro-1-((3-chloro-4-fluorophenyl)carbamoyl)-2-methyl-2,4,5,6-tetrahydrocyclopenta[c]pyrrol-4-yl)carbamate] | 0.01 µM
12 | Cc1c2c(c(C(=O)Nc3ccc(F)c(Cl)c3)n1C)CCC2NC(=O)OCc1c[nH]nn1 (single isomer, unassigned) [Compound 130, (1H-1,2,3-Triazol-4-yl)methyl (1-((3-chloro-4-fluorophenyl)carbamoyl)-2,3-dimethyl-2,4,5,6-tetrahydrocyclopenta[c]pyrrol-4-yl)carbamate] | 9 µM
13 | Cn1cc2c(c1C(=O)Nc1ccc(F)c(Cl)c1)CCC2NC(=O)OCc1ncco1 (single isomer, unassigned) [Compound 34, Oxazol-2-ylmethyl (1-((3-chloro-4-fluorophenyl)carbamoyl)-2-methyl-2,4,5,6-tetrahydrocyclopenta[c]pyrrol-4-yl)carbamate] | 0.08 µM
14 | Cn1cc2c(c1C(=O)Nc1ccc(F)c(Cl)c1)CCC2NC(=O)OCc1nc[nH]n1 (single isomer, unassigned) [Compound 57, (1H-1,2,4-Triazol-3-yl)methyl (1-((3-chloro-4-fluorophenyl)carbamoyl)-2-methyl-2,4,5,6-tetrahydrocyclopenta[c]pyrrol-4-yl)carbamate] | 0.05 µM
15 | Cn1cc2c(c1C(=O)Nc1ccc(F)c(Cl)c1)CCC2NC(=O)OC[C@H]1CCC(=O)N1 (single isomer, unassigned) [Compound 120] | 0.21 µM

Same assay, conditions: Hepatitis B virus, HepDE19, 168 h, HepDE19 cells, Tet-free medium, 7 day-incubation, rcDNA measured by Quantigene 2.0 bDNA assay, top concentration 25 μM; read-out: DE-19 bDNA EC50

Row | Compound | EC50
16 | Cc1c2c(c(C(=O)Nc3ccc(F)c(Cl)c3)n1C)CCCC2NC(=O)OCc1ncn(C)n1 (single isomer, unassigned) [Compound 92, (1-Methyl-1H-1,2,4-triazol-3-yl)methyl (1-((3-chloro-4-fluorophenyl)carbamoyl)-2,3-dimethyl-4,5,6,7-tetrahydro-2H-isoindol-4-yl)carbamate] | 0.53 µM
17 | CCn1cc2c(c1C(=O)Nc1ccc(F)c(Cl)c1)CCC2NS(=O)(=O)C1CC1 (centres unmarked) [Compound 12, N-(3-Chloro-4-fluorophenyl)-4-(cyclopropanesulfonamido)-2-ethyl-2,4,5,6-tetrahydrocyclopenta[c]pyrrole-1-carboxamide] | 0.26 µM
18 | Cn1cc2c(c1C(=O)Nc1ccc(F)c(Cl)c1)CCC2NC(=O)OCc1nn[nH]n1 (racemic) [Compound 148, (2H-tetrazol-5-yl)methyl (1-((3-chloro-4-fluorophenyl)carbamoyl)-2-methyl-2,4,5,6-tetrahydrocyclopenta[c]pyrrol-4-yl)carbamate] | 1.9 µM

Same assay, conditions: Hepatitis B virus, HepDE19, 168 h, read-out: DE-19 bDNA EC50 (μM), HepDE19 cells, Tet-free medium, 7 day-incubation, rcDNA measured by Quantigene 2.0 bDNA assay, top concentration 25 μM

Row | Compound | EC50
19 | CNC(=O)NC1CCc2c1cn(C)c2C(=O)Nc1ccc(F)c(Cl)c1 (racemic) [Compound 3, N-(3-chloro-4-fluorophenyl)-2-methyl-4-(3-methylureido)-2,4,5,6-tetrahydrocyclopenta[c]pyrrole-1-carboxamide] | 0.94 µM

Same assay, conditions: read-out: DE-19 bDNA EC50; HepDE19 cells, Tet-free medium, 7 day-incubation, rcDNA measured by Quantigene 2.0 bDNA assay, top concentration 25 μM

Row | Compound | EC50
20 | COC(=O)NC1CCCc2c1cn(C)c2C(=O)Nc1ccc(F)c(Cl)c1 (single isomer, unassigned) [Compound 29, Methyl (1-((3-chloro-4-fluorophenyl)carbamoyl)-2-methyl-4,5,6,7-tetrahydro-2H-isoindol-4-yl)carbamate] | 0.47 µM
21 | COC(=O)NC1CCCCc2c1cn(C)c2C(=O)Nc1ccc(F)c(Cl)c1 (single isomer, unassigned) [Compound 79, Methyl (1-((3-chloro-4-fluorophenyl)carbamoyl)-2-methyl-2,4,5,6,7,8-hexahydrocyclohepta[c]pyrrol-4-yl)carbamate] | 0.73 µM
22 | COC(=O)NC1CCc2c1cn(C)c2C(=O)Nc1ccc(F)c(Cl)c1 (single isomer, unassigned) [Compound 5, Methyl 1-(3-chloro-4-fluorophenylcarbamoyl)-2-methyl-2,4,5,6-tetrahydrocyclopenta[c] pyrrol-4-ylcarbamate] | 0.99 µM
23 | Cn1cc2c(c1C(=O)Nc1ccc(F)c(Cl)c1)CCC2NC(=O)OCc1nn[nH]n1 (single isomer, unassigned) [Compound 150, (2H-Tetrazol-5-yl)methyl(1-((3-chloro-4-fluorophenyl)carbamoyl)-2-methyl-2,4,5,6-tetrahydrocyclopenta[c]pyrrol-4-yl)carbamate] | 6.8 µM
24 | COC(=O)NC1CCn2c(C(=O)Nc3ccc(F)c(Cl)c3)ccc21 (single isomer, unassigned) [Compound 39, Methyl (5-((3-chloro-4-fluorophenyl)carbamoyl)-2,3-dihydro-1H-pyrrolizin-1-yl)carbamate] | 15 µM
25 | Cn1cnc(COC(=O)NC2CCc3c2c(-c2ccccc2)n(C)c3C(=O)Nc2ccc(F)c(Cl)c2)n1 (single isomer, unassigned) [Compound 109, (1-Methyl-1H-1,2,4-triazol-3-yl)methyl (1-((3-chloro-4-fluorophenyl)carbamoyl)-2-methyl-3-phenyl-2,4,5,6-tetrahydrocyclopenta[c]pyrrol-4-yl)carbamate] | 24 µM
26 | COC(=O)NC1CCn2c(C(=O)Nc3ccc(F)c(Cl)c3)ccc21 (single isomer, unassigned) [Compound 38, Methyl (5-((3-chloro-4-fluorophenyl)carbamoyl)-2,3-dihydro-1H-pyrrolizin-1-yl)carbamate] | 4.7 µM
